Key:
Assay type in all cases: in vivo
[1] = system: Plutella xylostella (Diamond Back Moth); assay: Example B4: Plutella xylostella (diamond back moth), 24-well artificial diet, eggs; conditions: 192 h, application rate of 200 ppm, pipetting, 8 days after infestation, in comparison to untreated samples, read-out: effect in at least one of the two categories (mortality or growth inhibition)
Experimental: Example B4: Plutella xylostella (Diamond Back Moth)
24-well microtiter plates with artificial diet were treated with aqueous test solutions prepared from 10′000 ppm DMSO stock solutions by pipetting. After drying, Plutella eggs were pipetted through a plastic stencil onto a gel blotting paper and the plate was closed with it. The samples were assessed for mortality and growth inhibition in comparison to untreated samples 8 days after infestation. The following compounds gave an effect of at least 80% in at least one of the two categories (mortality or growth inhibition) at an application rate of 200 ppm: […]

[2] = system: Spodoptera littoralis (Egyptian Cotton Leaf Worm); assay: Example B5: Spodoptera littoralis (Egyptian cotton leaf worm), cotton leaf discs sprayed, L1 larvae; conditions: foliar, 72 h, application rate of 200 ppm, 3 days after infestation, in comparison to untreated samples, read-out: control (at least one of mortality, anti-feedant effect, growth inhibition)
Experimental: Example B5: Spodoptera littoralis (Egyptian Cotton Leaf Worm)
Cotton leaf discs were placed onto agar in 24-well microtiter plates and sprayed with aqueous test solutions prepared from 10′000 ppm DMSO stock solutions. After drying the leaf discs were infested with five L1 larvae. The samples were assessed for mortality, anti-feeding effect, and growth inhibition in comparison to untreated samples 3 days after infestation. Control of Spodoptera littoralis by a test sample is given when at least one of the categories mortality, anti-feedant effect, and growth inhibition is higher than the untreated sample.

[3] = system: Chilo suppressalis (Striped Rice Stemborer); assay: Example B3: Chilo suppressalis (striped rice stemborer), artificial diet, L2 larvae; conditions: 144 h, application rate of 200 ppm, pipetting, 6 days after infestation, in comparison to untreated samples, read-out: control (at least one of mortality, anti-feedant effect, growth inhibition)
Experimental: Example B3: Chilo suppressalis (Striped Rice Stemborer)
24-well microtiter plates with artificial diet were treated with aqueous test solutions prepared from 10′000 ppm DMSO stock solutions by pipetting. After drying, the plates were infested with L2 larvae (6-8 per well). The samples were assessed for mortality, anti-feeding effect, and growth inhibition in comparison to untreated samples 6 days after infestation. Control of Chilo suppressalis by a test sample is given when at least one of the categories mortality, anti-feedant effect, and growth inhibition is higher than the untreated sample.

[4] = system: Diabrotica Balteata (Corn Root Worm); assay: Example B1: Diabrotica balteata (corn root worm), maize sprouts sprayed, L2 larvae; conditions: 96 h, application rate of 200 ppm, 4 days after infestation, in comparison to untreated samples, read-out: effect in at least one of the two categories (mortality or growth inhibition)
Experimental: Example B1: Diabrotica Balteata (Corn Root Worm)
Maize sprouts placed onto an agar layer in 24-well microtiter plates were treated with aqueous test solutions prepared from 10′000 ppm DMSO stock solutions by spraying. After drying, the plates were infested with L2 larvae (6 to 10 per well). The samples were assessed for mortality and growth inhibition in comparison to untreated samples 4 days after infestation.
The following compounds gave an effect of at least 80% in at least one of the two categories (mortality or growth inhibition) at an application rate of 200 ppm: […]

[5] = system: Plutella xylostella (Diamondback Moth); assay: Example B7: Plutella xylostella (diamondback moth), 96-well artificial diet, eggs; conditions: 216 h, application rate of 500 ppm, eggs (~30 per well), 9 days after infestation, read-out: control (samples assessed for mortality)
Experimental: Example B7: Plutella xylostella (Diamondback Moth)
96-well microtiter plates containing artificial diet were treated with aqueous test solutions, prepared from 10′000 ppm DMSO stock solutions, by a liquid handling robot. After drying, eggs (˜30 per well) were infested onto a netted lid which was suspended above the diet. The eggs hatch and L1 larvae move down to the diet. The samples were assessed for mortality 9 days after infestation.

CC(Nc1nnc2c(C(F)(F)F)cc(Br)cn12)c1ncnn1-c1ccc(C#N)cn1 (stereo not shown) [Compound P6, 6-[5-[1-[[6-bromo-8-(trifluoromethyl)-[1,2,4]triazolo[4,3-a]pyridin-3-yl]amino]ethyl]-1,2,4-triazol-1-yl]pyridine-3-carbonitrile]
≥ 80%: percent effect (mortality or growth inhibition) at 200 ppm [1] | percent control (mortality, anti-feedant effect or growth inhibition) at 200 ppm [2] | percent control (mortality, anti-feedant effect or growth inhibition) at 200 ppm [3]

C[C@@H](c1ncnn1-c1ccc(C#N)cn1)N(C)c1nnc2c(C(F)(F)F)cc(C(F)(F)F)cn12 [Compound P1, 6-[5-[(lS)-1-[[6.8-bis(trifluoromethyl)-[1,2,4]triazolo[4,3-a]pyridin-3-yl]-methyl-amino]ethyl]-1,2,4-triazol-1-yl]pyridine-3-carbonitrile]
≥ 80%: percent effect (mortality or growth inhibition) at 200 ppm [1] | percent effect (mortality or growth inhibition) at 200 ppm [4] | percent control (mortality, anti-feedant effect or growth inhibition) at 200 ppm [3]

CC(Nc1nnc2c(C(F)(F)F)cc(C(F)(F)F)cn12)c1ncnn1-c1ccc(Br)cn1 (stereo not shown) [Compound P4, N-[1-[2-(5-bromo-2-pyridyl)-1,2,4-triazol-3-yl]ethyl]-6,8-bis(trifluoromethyl)-[1,2,4]triazolo[4,3-a]pyridin-3-amine]
≥ 80%: percent effect (mortality or growth inhibition) at 200 ppm [1] | percent control (mortality, anti-feedant effect or growth inhibition) at 200 ppm [2] | percent effect (mortality or growth inhibition) at 200 ppm [4] | percent control (mortality, anti-feedant effect or growth inhibition) at 200 ppm [3]

CC(Nc1nnc2c(C(F)(F)F)cc(Br)cn12)c1ncnn1-c1ncccn1 (stereo not shown) [Compound P7, 6-bromo-N-[1-(2-pyrimidin-2-yl-1,2,4-triazol-3-yl)ethyl]-8-(trifluoromethyl)-[1,2,4]triazolo[4,3-a]pyndin-3-amine]
≥ 80%: percent control (mortality, anti-feedant effect or growth inhibition) at 200 ppm [3]

CC(Nc1nnc2c(C(F)(F)F)cc(C(F)(F)F)cn12)c1ncnn1-c1ccc(C#N)cn1 (stereo not shown) [Compound P3, 6-[5-[1-[[6,8-bis(trifluoromethyl)-[1,2,4]triazolo[4,3-a]pyridin-3-yl]amino]ethyl]-1,2,4-triazol-1-yl]pyridine-3-carbonitrile]
≥ 80%: percent effect (mortality or growth inhibition) at 200 ppm [1] | percent control (mortality, anti-feedant effect or growth inhibition) at 200 ppm [2] | percent effect (mortality or growth inhibition) at 200 ppm [4] | percent control (mortality, anti-feedant effect or growth inhibition) at 200 ppm [3]

CC(Nc1nnc2c(Cl)cc(C(F)(F)F)cn12)c1ncnn1-c1ccc(C#N)cn1 (stereo not shown) [Compound P8, 6-[5-[1-[[8-chloro-6-(trifluoromethyl)-[1,2,4]triazolo[4,3-a]pyridin-3-yl]amino]ethyl]-1,2,4-triazol-1-yl]pyridine-3-carbonitrile]
≥ 80%: percent effect (mortality or growth inhibition) at 200 ppm [1] | percent control (mortality, anti-feedant effect or growth inhibition) at 200 ppm [2] | percent effect (mortality or growth inhibition) at 200 ppm [4] | percent control (mortality, anti-feedant effect or growth inhibition) at 200 ppm [3]

C[C@H](Nc1nnc2c(C(F)(F)F)cc(C(F)(F)F)cn12)c1ncnn1-c1ccc(C#N)cn1 [Compound P2, 6-[5-[(1S)-1-[[6,8-bis(trifluoromethyl)-[1,2,4]triazolo[4,3-a]pyridin-3-yl]amino]ethyl]-1,2,4-triazol-1-yl]pyridine-3-carbonitrile]
≥ 80%: percent effect (mortality or growth inhibition) at 200 ppm [1] | percent control (mortality, anti-feedant effect or growth inhibition) at 200 ppm [2] | percent effect (mortality or growth inhibition) at 200 ppm [4] | percent control (mortality, anti-feedant effect or growth inhibition) at 200 ppm [3]

CC(Nc1nnc2c(Cl)cc(C(F)(F)F)cn12)c1ncnn1-c1ncccn1 (stereo not shown) [Compound P9, 8-chloro-N-[1-(2-pyrimidin-2-yl-1,2,4-triazol-3-yl)ethyl]-6-(trifluoromethyl)-[1,2,4]triazolo[4,3-a]pyridin-3-amine]
≥ 80%: mortality at 500 ppm [5] | percent control (mortality, anti-feedant effect or growth inhibition) at 200 ppm [3]

CC(Nc1nnc2c(C(F)(F)F)cc(Br)cn12)c1ncnn1-c1ccc(Br)cn1 (stereo not shown) [Compound P5, 6-bromo-N-[1-[2-(5-bromo-2-pyridyl)-1,2,4-triazol-3-yl]ethyl]-8-(trifluoromethyl)-[1,2,4]triazolo[4,3-a]pyridin-3-amine]
≥ 80%: percent effect (mortality or growth inhibition) at 200 ppm [1] | percent effect (mortality or growth inhibition) at 200 ppm [4] | percent control (mortality, anti-feedant effect or growth inhibition) at 200 ppm [3]
